Laboratory results: patent US6680311B1, “Cryptophycin compounds” (Eli Lilly and Company, priority 1996, dated 2004)
In brackets after ≈: the same amount, converted by molar mass. Structures can show the parent of a compound that is named as a salt. Where two headings read alike, the source gives them in different places.

Experiments:
[1] = tested on: GC3 human colon carcinoma cells; test: GC3 human colon carcinoma screen (MTT); assay type: cell-based
Experimental: Selected wells of a 96 well plate were seeded with GC3 human colon carcinoma cells ([…] cells in 100 μl assay medium/well) twenty four hours prior to test compound addition. Cell free assay medium was added to other select wells of the 96 well plate.
The test compound was stored in an amber bottle prior to testing. Fresh dimethylsulfoxide stock solution (200 μg/ml) was prepared immediately prior to preparation of test sample dilutions in phosphate-buffered saline (PBS). A dilution of 1:20 dimethylsulfoxide solution in PBS was prepared such that the final concentration was 10 ug/ml. Serial 1:3 dilutions using PBS (0.5 ml previous sample of 1 ml PBS) were prepared.
A 10 ul sample of each dilution of test compound was added in triplicate to wells of GC3 plates. The plates were incubated for 72 hours at about 37° C. A 10 μl sample of stock 3-[4,5-[…]]-2,5-diphenyltetrazolium bromide salt (“MTT” 5 mg/ml in PBS) was added to each well. The plates were incubated for about an hour at 37°. The plates were centrifuged, media was decanted from the wells and 100 μl acid-isopropanol (0.04 N HCl in isopropanol) was added to each well. The plate was read within one hour using a test wavelength of 570 nm (SpectraMax reader).

[2] = Solubility in excipient / parenteral vehicles; assay type: physicochemical; details: Comparative solubility
[3] = tested on: Aortic smooth muscle (A-10) cells; test: Effects on the cytoskeleton (immunofluorescence); assay type: cell-based, rat; details: 2 μM, 24 hours
Experimental: (§1) A-10 cells are grown to near-confluency on glass coverslips in BME/10% FBS. Compounds in PBS are added to the indicated final concentrations and cells are incubated for an additional 24 hours. For the staining of microtubules and intermediate filaments, the cells are fixed with cold methanol and incubated with PBS containing 10% calf serum to block nonspecific binding sites. Cells are then incubated at 37° C. for 60 min. With either monoclonal anti-β-tubulin or with monoclonal anti-vimentin at dilutions recommended by the manufacturer. Bound primary antibodies are subsequently visualized by a 45 minute incubation with fluorescein-conjugated rabbit antimouse IgG. The coverslips are mounted on microscope slides and the fluorescence patterns are examined and photographed using a Zeiss Photomicroscope Ill equipped with epifluorescence optics for fluorescein. […] PBS containing 100 nM TRITC-phalloidin is then added and the mixture is allowed to incubate for 45 min. At 37° C. The cells are washed rapidly with PBS before the coverslips are mounted and immediately photographed as described above.
After 24 hours, microtubules and vimentin intermediate filaments are visualized by indirect immunofluorescence and microfilaments are stained using TRITC-phalloidin. The morphological effects of each drug is examined. […]

SKVLB1 cells = test: Toxicity toward SKVLB1 cells (growth inhibition); assay type: cell-based; details: Homo sapiens, inhibition of proliferation, P-glycoprotein over expressing, vinblastine-resistant sub-line
A-10 cells [4] = test: Effects on taxol-stabilized microtubules; assay type: cell-based, rat
Experimental: as §1
A-10 cells are treated for 3 hours with 0 or 10 μM taxol before the addition of PBS, 100 nM vinbiastine or 10 nM cryptophycin compound. After 24 hours, microtubule organization is examined by immunofluorescence as described above. […] Similarly, microtubules pretreated with taxol are observed with cryptophycin treatment.

A-10 cells [5] = test: Reversibility of microtubule depolymerization; assay type: cell-based, rat
Experimental: as §1
The cells are then washed and incubated in drug-free medium for periods of 1 hour or 24 hours. […] Cells are visualized for microtubule state after treatment with a cryptophycin compound of this invention at either 1 hour or 24 hours after removal of the cryptophycin compounds.

[6] = in vitro cytotoxicity, Gc3 tumor cell model, read-out: Gc3 IC50
[7] = Homo sapiens, Colon carcinoma cell, 72 h, read-out: IC50 (GC3 assay)
[8] = Homo sapiens, Colon carcinoma cell, 72 h, read-out: GC3 IC50

COc1ccc(C[C@H]2NC(=O)/C=C/C[C@@H]([C@H](C)[C@@H](O)[C@@H](Cl)c3ccccc3)OC(=O)[C@H](CC(C)C)OC(=O)C(C)(C)CNC2=O)cc1Cl [1′, Cryptophycin 55]
IC50 [1, 6]: 0.065 nM

COc1ccc(CC2NC(=O)C=CCC(C(C)C(OC(=O)CCC(=O)O)C(Cl)c3ccccc3)OC(=O)C(CC(C)C)OC(=O)C(C)(C)CNC2=O)cc1Cl (centres unmarked) [5′, Cryptophycin 55 Succinate]
IC50 [1, 6]: 31 nM

COc1ccc(CC2NC(=O)C=CCC(C(C)C(OC(=O)[C@H](N)Cc3ccc(OC)c(Cl)c3)C(Cl)c3ccccc3)OC(=O)C(CC(C)C)OC(=O)C(C)(C)CNC2=O)cc1Cl (some centres unmarked) [11′, Cryptophycin 55 3-(3-Chloro-4-methoxyphenyl)-(D)-alaninate Hydrochloride Salt]
IC50 [1, 6]: 6.8 nM

COc1ccc(CC2NC(=O)C=CCC(C(C)C(OC(=O)[C@@H](N)Cc3ccccc3)C(Cl)c3ccccc3)OC(=O)C(CC(C)C)OC(=O)C(C)(C)CNC2=O)cc1Cl (some centres unmarked) [13′, Cryptophycin 55 (L)-Phenylalaninate Hydrochloride Salt]
IC50 [1, 6]: 7 nM

COc1ccc(CC2NC(=O)C=CCC(C(C)C(OC(=O)[C@@H](N)Cc3c[nH]cn3)C(Cl)c3ccccc3)OC(=O)C(CC(C)C)OC(=O)C(C)(C)CNC2=O)cc1Cl (some centres unmarked) [15′, Cryptophycin 55 (L)-Histidinate Dihydrochloride Salt]
IC50 [1, 6]: 60 nM

COc1ccc(CC2NC(=O)C=CCC(C(C)C(OC(=O)C3CCCN3)C(Cl)c3ccccc3)OC(=O)C(CC(C)C)OC(=O)C(C)(C)CNC2=O)cc1Cl (centres unmarked) [17′, Cryptophycin 55 (L)-Prolinate Hydrochloride Salt]
IC50 [1, 6]: 3.6 nM

COc1ccc(CC2NC(=O)C=CCC(C(C)C(OC(=O)CN)C(Cl)c3ccccc3)OC(=O)C(CC(C)C)OC(=O)C(C)(C)CNC2=O)cc1Cl (centres unmarked) [19′, Cryptophycin 55 Glycinate Hydrochloride Salt]
IC50 [1, 6]: 0.1 nM

COc1ccc(C[C@H]2NC(=O)/C=C/C[C@@H]([C@H](C)[C@@H](Br)[C@H](O)c3ccccc3)OC(=O)[C@H](CC(C)C)OC(=O)[C@H](C)CNC2=O)cc1Cl [CRYPTOPHYCIN-138, Cryptophycin-138]
IC50 [1, 7]: 30.8 nM

COc1ccc(C[C@H]2NC(=O)/C=C/C[C@@H]([C@H](C)[C@@H](Br)C(=O)c3ccccc3)OC(=O)[C@H](CC(C)C)OC(=O)[C@H](C)CNC2=O)cc1Cl [CRYPTOPHYCIN-139, Cryptophycin-139]
IC50 [1, 7]: 3.4 nM

COc1ccc(C[C@H]2NC(=O)/C=C/C[C@@H]([C@H](C)[C@@H](Cl)[C@@H](O)c3ccccc3)OC(=O)[C@H](CC(C)C)OC(=O)[C@H](C)CNC2=O)cc1Cl [CRYPTOPHYCIN-140, Cryptophycin-140]
IC50 [1, 7]: 863 nM

COc1ccc(C[C@H]2NC(=O)/C=C/C[C@@H]([C@H](C)[C@@H](Cl)[C@H](O)c3ccccc3)OC(=O)[C@H](CC(C)C)OC(=O)[C@H](C)CNC2=O)cc1Cl [CRYPTOPHYCIN-141, Cryptophycin-141]
IC50 [1, 7]: 795 nM

COc1ccc(C[C@H]2NC(=O)/C=C/C[C@@H]([C@H](C)[C@H](Cl)[C@H](O)c3ccccc3)OC(=O)[C@H](CC(C)C)OC(=O)[C@H](C)CNC2=O)cc1Cl [CRYPTOPHYCIN-142]
IC50 [1, 7]: 1.1 nM

COc1ccc(C[C@H]2NC(=O)/C=C/C[C@@H]([C@H](C)[C@H](Cl)[C@@H](O)c3ccccc3)OC(=O)[C@H](CC(C)C)OC(=O)[C@H](C)CNC2=O)cc1Cl [CRYPTOPHYCIN-143]
IC50 [1, 7]: 850 nM

COc1ccc(C[C@H]2NC(=O)/C=C/C[C@@H]([C@H](C)[C@H](Br)[C@H](O)c3ccccc3)OC(=O)[C@H](CC(C)C)OC(=O)[C@H](C)CNC2=O)cc1Cl [CRYPTOPHYCIN-145, Cryptophycin-145]
IC50 [1, 7]: 0.015 nM

COc1ccc(C[C@H]2NC(=O)/C=C/C[C@@H]([C@H](C)[C@@H](O)[C@@H](Cl)c3ccccc3)OC(=O)[C@H](CC(C)C)OC(=O)C(C)(C)CNC2=O)cc1Cl [Compound 1, cryptophycin 55]
IC50 ([1]; Homo sapiens, Colon carcinoma cell, in vitro cytotoxicity, 72 hours, MTT, read-out: GC3 IC50): 0.065 nM | solubility ([2]; aqueous with cosolvent or surfactant or cyclodextrin, vehicle 1): < 1 µg/mL | solubility ([2]; aqueous with cosolvent or surfactant or cyclodextrin, vehicle 2): 2.6 µg/mL (≈ 3.68 µM) | solubility ([2]; aqueous with cosolvent or surfactant or cyclodextrin, vehicle 3): 311 µg/mL (≈ 441 µM) | solubility ([2]; aqueous with cosolvent or surfactant or cyclodextrin, vehicle 4): 361 µg/mL (≈ 512 µM) | solubility ([2]; pH 4, aqueous buffer, vehicle 5): < 1 µg/mL

COc1ccc(C[C@H]2NC(=O)/C=C/C[C@@H]([C@H](C)[C@@H](OC(C)=O)[C@@H](Cl)c3ccccc3)OC(=O)[C@H](CC(C)C)OC(=O)C(C)(C)CNC2=O)cc1Cl [Compound 3, Cryptophycin 55 Acetate]
IC50 [1, 8]: 83 nM

COc1ccc(C[C@H]2NC(=O)/C=C/C[C@@H]([C@H](C)[C@@H](OC(=O)CCC(=O)O)[C@@H](Cl)c3ccccc3)OC(=O)[C@H](CC(C)C)OC(=O)C(C)(C)CNC2=O)cc1Cl [Compound 4, Cryptophycin 55 Succinate]
IC50 [1, 8]: 31 nM

COc1ccc(C[C@H]2NC(=O)/C=C/C[C@@H]([C@H](C)[C@@H](OC(=O)Cc3ccccc3OP(=O)(O)O)[C@@H](Cl)c3ccccc3)OC(=O)[C@H](CC(C)C)OC(=O)C(C)(C)CNC2=O)cc1Cl [Compound 6, Cryptophycin 55 (2′-Phosphatyl)phenylacetate di-Sodium Salt]
IC50 [1, 8]: 3.7 nM

C=C1[C@@H](C)[C@H]2[C@H](Cc3ccccc3)NC(=O)[C@]23OC(=O)/C=C/[C@H](O)CCC[C@@H](C)C/C=C/[C@H]3[C@@H]1O [Cytochalasin B, cytochalasin B]
effect on microfilaments ([3]; TRITC-phalloidin staining): complete depolymerization of microfilaments | effect on distribution of microtubules or intermediate filaments ([3]; indirect immunofluorescence): did not affect

CC(=O)O[C@H]1C(=O)[C@@]2(C)[C@H]([C@H](OC(=O)c3ccccc3)[C@]3(O)C[C@H](OC(=O)[C@H](O)[C@@H](NC(=O)c4ccccc4)c4ccccc4)C(C)=C1C3(C)C)[C@]1(OC(C)=O)CO[C@@H]1C[C@@H]2O [Taxol, taxol]
IC50 (SKVLB1 cells): 8000 nM | microtubule organization in taxol-treated cells (A-10 cells [4]; 10 μM taxol, compared with control cells): extensively bundled

CC[C@]1(O)C[C@@H]2CN(CCc3c([nH]c4ccccc34)[C@@](C(=O)OC)(c3cc4c(cc3OC)N(C)[C@H]3[C@@](O)(C(=O)OC)[C@H](OC(C)=O)[C@]5(CC)C=CCN6CC[C@]43[C@@H]65)C2)C1 [Vinblastine, vinblastine]
microtubule repolymerization 1 hour after removal of drug (A-10 cells [5]; 100 nM for 24 hr, washed, drug-free medium 1 hour): significant levels of microtubules | microtubule repolymerization 24 hours after removal of drug (A-10 cells [5]; 100 nM for 24 hr, washed, drug-free medium 24 hours): complete morphological recovery | microtubule depolymerization (A-10 cells [5]; 100 nM, 24 hr): complete microtubule depolymerization | IC50 (SKVLB1 cells): 4200 nM | microtubule depolymerization after taxol pretreatment (A-10 cells [4]; 100 nM vinblastine after 3 hours pretreatment with 10 μM taxol): prevented microtubule depolymerization | microtubule depolymerization (A-10 cells [4]; 100 nM, 24 hours, non-pretreated cells): complete depolymerization of microtubules

Cryptophycin 55 (2′-phosphatyl)phenylacetate di-sodium Salt [7′]
IC50 [1, 6]: 3.7 nM

Cryptophycin 55 (D)-alaninate Hydrochloride Salt [30′]
IC50 [1, 6]: 30 nM

Cryptophycin 55 Acetate [3′]
IC50 [1, 6]: 83 nM

Cryptophycin 55 β-Alaninate Hydrochloride Salt [21′]
IC50 [1, 6]: 21 nM

Cryptophycin 55 γ-Aminobutyrate Hydrochloride Salt [25′]
IC50 [1, 6]: 230 nM
